# In patent publication US6686343B1, “Triazolopurine derivatives, pharmaceutical compositions containing the derivatives, and adenosine A3 receptor affinitive agents” (Otsuka Pharmaceutical Factory, Inc., priority 1999, dated 2004):
row,SMILES,melting point
1,"COCc1nc2nc[nH]c2c2nc(-c3ccc(C(C)(C)C)cc3)nn12 [Example 15, 8-(4-t-butylphenyl)-5-methoxymethyl-1H-1,2,4-triazolo[5,1-i]purine]",≥ 280 °C
2,"C[S+]([O-])CCc1nc2nc[nH]c2c2nc(-c3ccc(C(F)(F)F)cc3)nn12 (stereo not drawn) [Example 40, 5-(2-methylsulfinylethyl)-8-(4-trifluoromethylphenyl)-1H-1,2,4-triazolo[5,1-i]purine]",≥ 203 °C (dec.)
3,CCOP(=O)(O)Cc1nc2nc[nH]c2c2nc(-c3ccc(C(F)(F)F)cc3)nn12,268 to 270 °C
4,"COCc1nc2nc[nH]c2c2nc(-c3ccc(C(F)(F)F)cc3)nn12 [Example 24, 5-methoxymethyl-8-(4-trifluoromethylphenyl)-1H-1,2,4-triazolo[5,1-i]purine]",≥ 280 °C
5,CCOP(=O)(Cc1nc2nc[nH]c2c2nc(-c3ccc(-c4ccccc4)cc3)nn12)OCC,188 to 192 °C
6,CCOP(=O)(CCCc1nc2nc[nH]c2c2nc(-c3ccc(-c4ccccc4)cc3)nn12)OCC,175 to 178 °C
7,"COCc1nc2nc[nH]c2c2nc(-c3cc(OC)c(OC)c(OC)c3)nn12 [Example 6, 5-methoxymethyl-8-(3,4,5-trimethoxyphenyl)-1H-1,2,4-triazolo[5,1-i]purine]",≥ 280 °C
8,CCOP(=O)(Cc1nc2nc[nH]c2c2nc(-c3ccc(C(F)(F)F)cc3)nn12)OCC,196 to 198 °C
9,"CC(=O)OCc1nc2nc[nH]c2c2nc(-c3ccc(-c4ccccc4)cc3)nn12 [Example 52, 8-(4-biphenylyl)-5-acetoxymethyl-1H-1,2,4-triazolo[5,1-i]purine]",233 to 235 °C
10,"CCOCc1nc2nc[nH]c2c2nc(-c3ccc(C(C)(C)C)cc3)nn12 [Example 14, 8-(4-t-butylphenyl)-5-ethoxymethyl-1H-1,2,4-triazolo[5,1-i]purine]",243 to 244 °C
11,"c1ccc(COCCCCc2nc3nc[nH]c3c3nc(-c4ccc(-c5ccccc5)cc4)nn23)cc1 [Example 57, 5-(4-benzyloxybutyl)-8-(4-biphenylyl)-1H-1,2,4-triazolo[5,1-i]purine]",205 to 207 °C
12,"CS(=O)(=O)CCc1nc2nc[nH]c2c2nc(-c3ccc(Cl)cc3)nn12 [Example 42, 8-(4-chlorophenyl)-5-(2-methylsulfonylethyl)-1H-1,2,4-triazolo[5,1-i]purine]",≥ 244 °C (dec.)
13,"COC(=O)CCCc1nc2nc[nH]c2c2nc(-c3ccc(C(C)(C)C)cc3)nn12 [Example 23, 8-(4-t-butylphenyl)-5-(3-methoxycarbonylpropyl)-1H-1,2,4-triazolo[5,1-i]purine]",169 to 172.5 °C
14,"COc1cc(-c2nc3c4[nH]cnc4nc(CCSC)n3n2)cc(OC)c1OC [Example 19, 5-(2-methylthioethyl)-8-(3,4,5-trimethoxyphenyl)-1H-1,2,4-triazolo[5,1-i]purine]",233 to 234 °C
15,"c1ccc(-c2ccc(-c3nc4c5[nH]cnc5nc(C5CCCCC5)n4n3)cc2)cc1 [Example 45, 8-(4-biphenylyl)-5-cyclohexyl-1H-1,2,4-triazolo[5,1-i]purine]",≥ 280 °C
16,"CS(=O)(=O)CCc1nc2nc[nH]c2c2nc(-c3ccc(C(F)(F)F)cc3)nn12 [Example 44, 5-(2-methylsulfonylethyl)-8-(4-trifluoromethylphenyl)-1H-1,2,4-triazolo[5,1-i]purine]",≥ 261 °C (dec.)
17,"c1ccc(COCCCc2nc3nc[nH]c3c3nc(-c4ccc(-c5ccccc5)cc4)nn23)cc1 [Example 56, 5-(3-benzyloxypropyl)-8-(4-biphenylyl)-1H-1,2,4-triazolo[5,1-i]purine]",237 to 238 °C

# Second part, the compound after the results:
row,melting point,SMILES
1,≥ 110 °C,CCOP(=O)(CCc1nc2nc[nH]c2c2nc(-c3ccc(-c4ccccc4)cc3)nn12)OCC
2,274 to 277 °C,CCOP(=O)(O)Cc1nc2nc[nH]c2c2nc(-c3ccc(-c4ccccc4)cc3)nn12
3,237 to 239 °C,"COCCc1nc2nc[nH]c2c2nc(-c3ccc(C(C)(C)C)cc3)nn12 [Example 16, 8-(4-t-butylphenyl)-5-(2-methoxyethyl)-1H-1,2,4-triazolo[5,1-i]purine]"
4,243 to 245.5 °C,"COC(=O)CCCc1nc2nc[nH]c2c2nc(-c3ccc(-c4ccccc4)cc3)nn12 [Example 21, 8-(4-biphenylyl)-5-(3-methoxycarbonylpropyl)-1H-1,2,4-triazolo[5,1-i]purine]"
5,284 to 286 °C,"CSCc1nc2nc[nH]c2c2nc(-c3ccc(-c4ccccc4)cc3)nn12 [Example 48, 8-(4-biphenylyl)-5-methylthiomethyl-1H-1,2,4-triazolo[5,1-i]purine]"
6,241.5 to 244 °C,"CCOC(=O)CCc1nc2nc[nH]c2c2nc(-c3ccc(-c4ccccc4)cc3)nn12 [Example 20, 8-(4-biphenylyl)-5-(2-ethoxycarbonylethyl)-1H-1,2,4-triazolo[5,1-i]purine]"
7,≥ 280 °C,"COCc1nc2nc[nH]c2c2nc(-c3ccccc3)nn12 [Example 12, 5-methoxymethyl-8-phenyl-1H-1,2,4-triazolo[5,1-i]purine]"
8,284 to 286 °C (dec.),"CN(C)Cc1nc2nc[nH]c2c2nc(-c3ccc(-c4ccccc4)cc3)nn12 [Example 54, 8-(4-biphenylyl)-5-dimethylaminomethyl-1H-1,2,4-triazolo[5,1-i]purine]"
9,≥ 218 °C (dec.),"C[S+]([O-])CCc1nc2nc[nH]c2c2nc(-c3ccc(Cl)cc3)nn12 (stereo not drawn) [Example 38, 8-(4-chlorophenyl)-5-(2-methylsulfinylethyl)-1H-1,2,4-triazolo[5,1-i]purine]"
10,249 to 251 °C,"CSCCc1nc2nc[nH]c2c2nc(-c3ccc(-c4ccccc4)cc3)nn12 [Example 4, 8-(4-biphenylyl)-5-(2-methylthioethyl)-1H-1,2,4-triazolo[5,1-i]purine]"
11,≥ 278 °C (dec.),"COCCc1nc2nc[nH]c2c2nc(-c3ccc(Cl)cc3)nn12 [Example 28, 8-(4-chlorophenyl)-5-(2-methoxyethyl)-1H-1,2,4-triazolo[5,1-i]purine]"
12,≥ 234 °C (dec.),"C[S+]([O-])CCc1nc2nc[nH]c2c2nc(-c3ccc(-c4ccccc4)cc3)nn12 (stereo not drawn) [Example 61, 8-(4-biphenylyl)-5-(2-methylsulfinylethyl)-1H-1,2,4-triazolo[5,1-i]purine]"
13,≥ 257 °C (dec.),"CSCCc1nc2nc[nH]c2c2nc(-c3ccc(Cl)cc3)nn12 [Example 29, 8-(4-chlorophenyl)-5-(2-methylthioethyl)-1H-1,2,4-triazolo[5,1-i]purine]"
14,217.5 to 218.5 °C,"COCCc1nc2nc[nH]c2c2nc(-c3ccccc3)nn12 (hydrate or solvate) [Example 13, 5-(2-methoxyethyl)-8-phenyl-1H-1,2,4-triazolo[5,1-i]purine]"
15,261 to 262.5 °C,"COC(=O)CCCc1nc2nc[nH]c2c2nc(-c3ccc(Cl)cc3)nn12 [Example 30, 8-(4-chlorophenyl)-5-(3-methoxycarbonylpropyl)-1H-1,2,4-triazolo[5,1-i]purine]"
16,≥ 280 °C,"CCCOc1ccc(-c2nc3c4[nH]cnc4nc(COC)n3n2)cc1 [Example 9, 5-methoxymethyl-8-(4-n-propoxyphenyl)-1H-1,2,4-triazolo[5,1-i]purine]"
